Laboratory results published in US20010051618A1 (priority 2000, published 2001).

What was measured:
kainate receptor = conditions: rat; Narita et al. 1993; cited from earlier work
[1] = tested on: poriomaniac behavior of dog; assay: Night activity of a demented dog with poriomania, recorded by CCD camera (Example 5); format: in vivo
Description: A male Pomeranian of 11 years old was used. The dog was established to have been demented and to have suffered from poriomania. About 200 g of a canned feed for dogs (Maintenance Canned Beef available from Nippon Hills Colgate Company) per day was fed to this animal in two portions in the morning and evening. On the other hand, water was available ad libitum.
The experiment was conducted in the laboratory under controlled conditions of room temperature of about 22° C. The cage (150 cm×90 cm) was illuminated by infrared light and the activity of the experimental animal in the night was detected by a monochrome CCD camera. The traces of activity were recorded on a microcomputer every 10 minutes. The traces were recorded for 2 days before treatment, after the animal was maintained and acclimatized to the conditions, and the records were used as the pre-treatment data. The data recording started at about 18:00 and the activity was recorded for 800 minutes.
The migration time is the time of the migration of the animal during the experiment. The migration length is the distance of migration of the animal during the experiment. The start of poriomaniac behavior was defined as the start of migration came after the quiescent state of not less than 10 minutes and the end of the poriomaniac behavior was defined as the stop of migration which was confirmed to be maintained for […] 10 minutes. One incident of the poriomaniac behavior was defined as the behavior from the start to the end of the aforementioned migration. One episode means one incident of the poriomaniac behavior.

[2] = General symptoms in the similar dog experiment (Example 5); format: in vivo; conditions: similar experiment with GABA
[3] = tested on: intentional motions of rats; assay: Forced swimming test, strokes by the forelimbs (Example 2); format: in vivo, rat; conditions: 0.5 mg/kg intraperitoneal, 30 minutes to 3 hours after administration, versus saline control, FIG. 2
Description: A GABAB receptor agonist, SKF97541, was intraperitoneally administered to rats, which had been kept under the same conditions used in Example 1, in an amount of 0.5 mg/kg and these animals were put in water maintained at a temperature ranging from 35 to 37° C. after 30 minutes to 3 hours from the administration of the […]. […] The rats were forced to swim in the pool to determine the number of strokes by the forelimbs of these animals per 5 minutes. A group of these animals to which physiological saline had separately been administered was used as a control group.

[4] = tested on: rat's running activity in the night; assay: Running-wheel activity in the night after intraperitoneal administration (Example 1); format: in vivo; conditions: ip, rats
Description: Rats (Wistar-Imamichi; 7-week-old) were kept in a cage equipped with a running wheel. The animals were kept under such lighting conditions that the lighting was initiated at 7:00 and it was stopped at 19:00, while the animals were allowed to freely eat diet and drink water. They were kept over 3 weeks without subjecting them to any treatment or they were not subjected to any treatment until they sufficiently habituated to the keeping environment or the cage.
These animals were treated by intraperitoneal administration of GABAB receptor agonist, SKF97541, in an amount of 1.0 mg/kg or 0.5 mg/kg at around 18:00. A group of these animals to which physiological saline had separately been administered was used as a control group. Regarding the quantity of running, the counts detected by a sensor equipped with a running wheel were inputted to a computer at intervals of 30 minutes to thus evaluate the accumulated counts in the night, which was defined to be the quantity of acts in the night. Thus, the relative rate of the accumulated count observed for the individual animal was calculated while the accumulated count observed for each animal prior to the treatment was assumed to be 1.

[5] = 150 mg powdered GABA in food at 18:00, post-treatment, 800 minutes recording

For O=C1N=c2cc([N+](=O)[O-])c([N+](=O)[O-])cc2=NC1=O [DNQX, 6,7-dinitroquinoxaline-2,3-dione], the “inhibition of running activity induced by kainate” value (kainate receptor) is given as “inhibited”.

In the case of NCCCC(=O)O [GABA, γ-aminobutyric acid], the “change in each parameter compared to pre-treatment data” value ([1]; 150 mg of GABA) is reported as “significant decrease”, the “mean duration time of each episode” value [1, 5] is reported as 0.7 min and the migration length [1, 5] is reported as 44.7 cm. For the same molecule, the migration time [1, 5] was 1.4 min, the number of episodes [1, 5] was 2 and the general symptoms [2] was “no particular notable events were observed”.

In the case of CP(=O)(O)CCCN [SKF97541, 3-aminopropyl (methyl) phosphinic acid], the “number of strokes by the forelimbs per 5 minutes” value [3] is reported as “not reduced”, the inhibition at 0.5 mg/kg ([4]; 0.5 mg/kg intraperitoneal at around 18:00, FIG. 1, read-out: inhibitory effect on quantity of running activity in the night, relative to the control group) is reported as 40 to 60% and the inhibition at 1 mg/kg ([4]; 1.0 mg/kg intraperitoneal at around 18:00, estimated, FIG. 1, read-out: inhibitory effect on quantity of running activity in the night, relative to the control group) is reported as about 70%.

In the case of C=C(C)[C@H]1CN[C@H](C(=O)O)[C@H]1CC(=O)O [kainate], the “induction of running activity” value (kainate receptor) is listed as “induced”.
